Data from patent publication US12527812B2, “Esophageal stricture suppressing agent” (priority 2019, dated 2026).

Assays:
[1] = test system: stricture esophageal tissue after ESD; settings: half circumferential (50%) ESD; Document 14; cited from earlier work
[2] = test system: esophageal stricture after entire circumference (100%) ESD; test: esophageal entire circumference (100%) ESD model, degree of esophageal stricture by macroscopical findings and histopathological analysis (Masson staining); format: in vivo
From the text: For the production of an esophageal entire circumference (100%) ESD model, miniature pigs for experiments were used.
As miniature pigs, three groups of a physiological saline administered group, a steroid preparation (Kenacort) administered group, and a CHST15 siRNA (manufactured by Hokkaido System Science Co., Ltd., lot number: 40481638) administered group were used (n=1/group). The miniature pig in each group was orally inserted with an upper gastrointestinal endoscope under general anesthesia and respiratory control, and an entire circumference (100%) ESD was performed using a dual knife with a total length of […] between 15 cm and 25 cm from the portal dentition. Into an entire circumference artificial ulcer immediately after preforming ESD was injected 2 mL in total of an administration solution (physiological saline, steroid preparation, CHST15 siRNA, 250 nM solution) using an endoscopic injection needle at a total of 20 locations so as to evenly cover the entire circumference from the ulcer bottom.
If no treatment is performed after ESD, esophageal stricture will develop within 2 weeks and food will not pass through, and the miniature pig will die within 4 weeks thereafter, so that the observation period after a single time administration was set to 2 weeks, the entire group was slaughtered after 2 weeks (Day 14), and the degree of esophageal stricture was investigated by macroscopical findings, and histopathological analysis (Masson staining).

[3] = single local injection immediately after ESD, Day 14, n=1/group

CHST15 siRNA: siRNA having a structure in which the RNAs described in SEQ ID NOs:1 and 2 are hybridized; suppresses expression of the CHST15 gene (chain 1 GGAGCAGAGCAAGAUGAAUACAAUCAG; chain 2 GAUUGUAUUCAUCUUGCUCUGCUCCAU; chemistry not given here)
fibrosis when expression of CHST15 mRNA is suppressed [1]: fibrosis is suppressed
suppressing effect of esophageal stricture after entire circumference ESD (overall) ([2]; consideration / summary of Example 1): remarkable stricture suppressing effect
damage of the muscular layer (pathological findings, Masson staining) ([2]; pig, in vivo): no damage of the muscular layer was observed
artificial ulcer repair / regenerated epithelium (pathological findings, Masson staining) [2, 3]: almost covered with regenerated epithelium
edible state (macroscopical findings) [2, 3]: edible
esophageal stricture / obstruction (macroscopical findings) [2, 3]: no stricture or obstruction
fibrosis deeper than the ulcer floor (pathological findings, Masson staining) [2, 3]: no pathological fibrosis
shortening of esophageal length (macroscopical findings) ([2]; single local injection into artificial ulcer immediately after ESD, 2 mL in total at 20 locations (CHST15 siRNA 250 nM solution), Day 14, n=1/group): substantially not observed
